Patent US20230233489A1 (priority 2020, published 2023)
Several values for one entry are separate records, joined by “and”; a condition that tells them apart may be missing. Equal values may be shown once. Read-outs that look alike come from different tables or passages of the source.

Legend:
SARS-CoV-2 [1] = settings: human, in vivo
RAC1 = settings: IBD patients; cited from earlier work
SARS-CoV-2 [2] = settings: human, in vivo; remark: listed apart in the source
[3] = in vivo; cited from earlier work
SARS-CoV-2 [4] = settings: cited from earlier work
Ebola virus [5] = settings: read-out: 50% inhibitive concentration [IC50]; cited from earlier work
[6] = cited from earlier work
SARS-CoV-1 = settings: cited from earlier work
MERS-CoV = settings: read-out: 50% effective concentration [EC50]; cited from earlier work
Ebola virus [7] = settings: mouse, in vivo; cited from earlier work

Q: For `COc1ccccc1OCCNCC(O)COc1cccc2[nH]c3ccccc3c12` (centres unmarked) [carvedilol], which “odds ratio of a positive laboratory test result for SARS-CoV-2” value (SARS-CoV-2 [1]) is on record?
A: 0.74 and 0.90 and 0.73

Q: For `S=c1nc[nH]c2nc[nH]c12` [Mercaptopurine, mercaptopurine], which RAC1 expression (RAC1) is on record?
A: lower RAC1 expression

Q: For `COc1ccc2[nH]cc(CCNC(C)=O)c2c1` [melatonin], which “odds ratio of a positive laboratory test result for SARS-CoV-2” value (SARS-CoV-2 [2]) is on record?
A: 0.36 and 0.35 and 0.56 and 0.46

Q: What about the “odds ratio of SARS-CoV-2 positive test” value (SARS-CoV-2 [1]) of the same molecule?
A: 0.52 and 0.61 and 0.80

Q: For `CN(C)CCOc1ccc(/C(=C(/CCCl)c2ccccc2)c2ccccc2)cc1` [toremifene], which bioavailability [3] is on record?
A: good

Q: What about the IC50 (SARS-CoV-2 [4]) of the same molecule?
A: 3.58 µM

Q: And the IC50 (Ebola virus [5])?
A: ~1 µM

Q: And the “bound to plasma protein” value [6]?
A: 99%

Q: And the EC50 (SARS-CoV-1)?
A: 12 µM

Q: What about the EC50 (MERS-CoV) of the same molecule?
A: 12.9 µM

Q: And the survival rate (Ebola virus [7])?
A: significantly improved survival rate
